Experimental data published in patent EP2123285A1, “Nucleosidic phosphoantigens for use in VGAMMA9DELTA2 T cell-mediated therapy” (INSERM (Institut National de la Santé et de la Recherche …, priority 2008, dated 2009).
Entries after “also recorded” stand apart in the source; their conditions may differ. Read-outs that look alike come from different tables or passages of the source.

What was measured:
[1] = system: polyclonal Vγ9Vδ2 T cell line; test: Degranulation assay for cytolytic function (CD107a), direct stimulation with soluble antigens; assay type: cell-based, human; settings: for surface expression of CD107a (cytotoxicity machinery): soluble antigen, no enzyme added
Description: (§1) Brefeldin A was omitted. […] Cells were washed twice in FACS medium and stained for TCR-Vδ2. Data were acquired and analyzed as for proliferation assay. Results are expressed as the mean of triplicate microwell cultures +/-S.E.M.

apyrase = molecular target: T1, apyrase (Solanum tuberosum, UniProt P80595); test: HPLC analysis of sensitivity to apyrase; assay type: in vitro ADME; settings: 100µM, 0.2U/mL apyrase, 1h at 37°C in RPMI
T1 sequence (P80595 1-454): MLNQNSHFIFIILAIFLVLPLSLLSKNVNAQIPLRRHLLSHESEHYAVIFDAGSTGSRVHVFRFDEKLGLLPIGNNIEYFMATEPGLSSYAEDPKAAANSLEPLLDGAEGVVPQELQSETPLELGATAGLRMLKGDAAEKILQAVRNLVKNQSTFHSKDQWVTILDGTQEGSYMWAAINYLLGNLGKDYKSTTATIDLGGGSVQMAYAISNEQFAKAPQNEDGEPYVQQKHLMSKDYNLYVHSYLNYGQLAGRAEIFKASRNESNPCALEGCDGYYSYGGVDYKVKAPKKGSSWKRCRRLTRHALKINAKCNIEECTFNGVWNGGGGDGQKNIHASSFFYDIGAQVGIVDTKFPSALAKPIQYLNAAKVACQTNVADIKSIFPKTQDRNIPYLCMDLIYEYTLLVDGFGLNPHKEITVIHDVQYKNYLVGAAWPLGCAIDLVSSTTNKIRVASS
Description: Reaction mixes containing nucleosidic compounds were adjusted to 200µL with water and products were separated by HPLC (System Gold, Beckman Coulter) on a PL-SAX anion exchange column (1000Å, 5µm, 50x4.6mm from Polymer Labs Varian, Marseille, France) using water (A) and 1M (NH4)2HPO4, pH 3.5 (B) and the following elution gradient: 0-1 min: 0% B; 1-11 min: 0% to 30% B; 11-13 min: 100% B; 13-19min: 0% B. Eluted nucleotides were detected by monitoring UV absorbance at 260nm. In these conditions, adenosine and AMP are not retained on the column and are detected with the elution front. To evaluate phosphatase sensitivity, ApppI and ATP (100µM final concentration) were incubated for 1h at 37°C in 20µL RPMI in the presence of 0.2U/mL apyrase or 0.02U/mL nucleotide pyrophosphatase before analysis.

Vγ9Vδ2 T cells [2] = test: Single cell analysis of calcium mobilization; assay type: cell-based, human; settings: ApppI-loaded, F1-coated beads
[3] = molecular target: T2, F1-ATPase purified from bovine heart mitochondria (Bos taurus, UniProt P00829+P19483); test: F1-ATPase activity, ATP bioluminescence assay; assay type: biochemical; settings: 1µM ATP, 5min, ApppI added in the reaction mixture
T2 construct: F1-ATPase purified from bovine heart mitochondria; from tissue; host or cells: bovine heart mitochondria
Description: (§2) F1-ATPase complexes were recovered from ammonium sulfate precipitates by centrifugation (17000g, 3min) and dissolved in ATPase assay buffer (10mM HEPES, 150mM NaCl, 5mM KCl, 2mM MgCl2, pH 7.5). ATP and ADP were measured using two different assays. For ATP measurements, a bioluminescence assay was used: 100ng F1-ATPase were incubated at room temperature in 50µL of ATPase assay buffer containing 1µM ATP and the indicated apyrase-treated ApppI concentrations in white 96 wells plates. After 5 minutes, 30µL of reconstituted luciferase from the ATP CLSII Kit (Roche) were added and luminescence was acquired on an Orion luminometer (Berthold Detection Systems). The kinetics of ADP production resulting from ATP hydrolysis was measured using the lactate dehydrogenase/pyruvate kinase assay and was adapted from Gledhill, J.R. et al., Biochem J 386, 591-598, 2005: 2µg F1-ATPase were incubated in 200µL of ATPase assay buffer supplemented with phosphoenol pyruvate (500µM), NADH (250µM), lactate dehydrogenase (LDH, 1U) and pyruvate kinase (PK, 5U), with the indicated ATP concentrations and with or without 100µM apyrase-treated ApppI. OD340nm was measured during 2 minutes (with one measurement every 10 seconds) on a Varioskan Flash spectrophotometer (Thermo Electron Corporation). The initial hydrolysis rate (V0) was calculated from a linear regression of the data. […]

[4] = molecular target: T3, bovine F1-ATPase (in the form of F1Fo complexes) (Bos taurus, UniProt P00829+P19483); test: Pulsing on F1Fo-coated beads and subsequent T cell activation (CD107a); assay type: binding
T3 construct: from tissue
Description: as §1
For immobilization on beads, solubilized F1Fo complexes were diluted to 1/3000 (5µg/mL) in 1 ml of PBS and incubated with 10^7 6µm polystyrene beads (Biovalley, Marne-la-Vallée, France) for 4h at room temperature on a rotating wheel. Beads were then pelleted by centrifugation (2min, 12000g), washed and incubated in 1mL of 1% BSA in PBS overnight, washed once with PBS and kept for several days at 4°C in PBS containing 1% BSA. Beads were used in stimulation assays as cultured cell lines. Control beads were prepared similarly except that F1Fo was replaced by BSA. In some experiments the beads were loaded with phosphoantigens: to this end, after washing a suitable aliquot, beads were incubated with ApppI or IPP (50µM) for 2 hours at 37°C in complete SFM medium, washed extensively, and used for Vγ9Vδ2 T cells stimulation. In phosphatase sensitivity assays (Fig.8) NPP or control medium were added to the beads in microculture wells 30min before pulsing the beads or addition of T cells. The beads were then washed and T cells were added with or without supplementation with the same phosphatases. T cell activation was evaluated as described above.

Vγ9Vδ2 T cells [5] = test: Intracellular cytokine staining (IFNγ); assay type: cell-based, human
Vγ9Vδ2 T cells [6] = test: Proliferation assay: Vγ9Vδ2 T cell expansion from PBL stimulated with phosphoantigen plus IL-2; assay type: cell-based, human
[7] = molecular target: nucleotide pyrophosphatase (Crotalus adamanteus, UniProt J3SEZ3)
[8] = system: polyclonal Vγ9Vδ2 T cell line; test: Degranulation assay (CD107a) with tumor cell lines as presenting or pulsed cells; assay type: cell-based, human; settings: for stimulatory activity of pulsed 721.221 cells: 721.221 cell line; for pulsing of RPMI-8226 cells: 2h, 10µM; for sensitivity of stimulation by pulsed cells to apyrase and pyrophosphatase: Daudi or K562 cells pulsed overnight (pamidronate 50µM, ApppI 20µM), apyrase 0.2U/mL, NPP 0.02U/mL, alone or in combination
[9] = molecular target: T2, F1-ATPase purified from bovine heart mitochondria; test: F1-ATPase activity, kinetics of ADP production (lactate dehydrogenase/pyruvate kinase assay); assay type: biochemical; settings: 100 µM ApppI, low ATP concentrations
Description: as §2

SMILES: Nc1ncnc2c1ncn2[C@@H]1O[C@H](COP(=O)(O)OP(=O)(O)O)[C@@H](O)[C@H]1O [ADP]
- effect on T cell stimulations ([1]; data not shown): no effect

SMILES: Nc1ncnc2c1ncn2[C@@H]1O[C@H](COP(=O)(O)OP(=O)(O)OP(=O)(O)O)[C@@H](O)[C@H]1O [ATP, reference compound]
- HPLC profile after apyrase treatment (apyrase): completely hydrolyzed

SMILES: C=C(C)CCOP(=O)(O)OP(=O)(O)OP(=O)(O)OC[C@H]1O[C@@H](n2cnc3c(N)ncnc32)[C@H](O)[C@@H]1O [ApppI, 1-(adenosin-5'-yl) 3-(3-methylbut-3-enyl) triphosphoric diester]
- intracellular calcium mobilization (Vγ9Vδ2 T cells [2]; NPP 0.02U/mL added after contact): slow but strong and sustained calcium response
- intracellular calcium mobilization (Vγ9Vδ2 T cells [2]; no NPP): clear activation in few cells only
- effect of exogenous NPP on stimulatory activity ([1]; NPP 0.02U/mL added to the T cell stimulation assay): greatly increased
- effect of apyrase on stimulatory activity ([1]; apyrase 0.2U/mL, antigen 10µM): abrogates completely
- surface expression of CD107a (cytotoxicity machinery) [1]: less bioactive than IPP itself
- increase of the amount of ATP hydrolyzed by the complex [3]: two-fold
- stimulatory activity of loaded F1-ATPase-coated beads ([4]; ApppI treated with NPP before pulsing on beads): no activity is retained
- stimulatory activity of loaded F1-ATPase-coated beads ([4]; NPP 0.02U/mL added in the T cell stimulation assay): a strong stimulatory activity can be revealed
- stimulatory activity of loaded F1-ATPase-coated beads ([4]; beads incubated with 50µM antigen for 2h, washed, no NPP): confers some additional stimulatory activity
- stimulatory activity of loaded F1-ATPase-coated beads ([4]; beads treated with NPP after pulsing, then washed): retain an activity identical to that of beads which have not been treated with NPP
- effect of ApppI added to IPP on the IPP response (Vγ9Vδ2 T cells [5]; IPP (10µM) plus ApppI at varying concentrations): does not compete with IPP
- induction of intracellular IFN-γ production (Vγ9Vδ2 T cells [5]; PBL stimulation): could induce
- higher concentration required for a similar cytokine response (Vγ9Vδ2 T cells [5]; relative to IPP, intracellular IFNγ): 50-100 fold
- HPLC profile after apyrase treatment (apyrase): did not change its HPLC profile
- homogeneity of the culture (Vγ9Vδ2 T cells) (Vγ9Vδ2 T cells [6]; 5 µM): ~94%
- induction of proliferation (Vγ9Vδ2 T cells [6]; PBL stimulation): could induce
- higher molar concentration required for a similar effect on Vγ9Vδ2 T cell expansion from PBLs (Vγ9Vδ2 T cells [6]; relative to IPP, 1 week after PBL stimulation): 5-10 fold
- hydrolysis by NPP (HPLC) [7]: can be hydrolyzed
- stimulatory activity of pulsed 721.221 cells [8]: cannot be significantly pulsed; also recorded: poorly stimulatory
- pulsing of RPMI-8226 cells ([8]; 4°C): abrogated
- pulsing of RPMI-8226 cells ([8]; 37°C): sufficient to confer stable stimulatory activity
- pulsing of RPMI-8226 cells ([8]; 37°C after 2h pre-treatment with cytochalasin D (10µM)): abrogated
- sensitivity of stimulation by pulsed cells to apyrase and pyrophosphatase [8]: completely resistant
- stimulation by combination of RPMI-8226 cells and phosphoantigen ([8]; RPMI-8226 cells 1:1 ratio plus soluble antigen): synergistic activation
- stimulatory activity retained on pulsed tumor cells after extensive washing ([8]; tumor cell lines pulsed overnight, compared to tumor cells not washed): 70%
- initial rate of ADP production relative to the rate in the absence of ApppI [9]: approximately twice

SMILES: C=C(C)CCO[P@@](=O)(O)OP(=O)(O)O [IPP, isopentenyl pyrophosphate, reference compound]
- surface expression of CD107a (cytotoxicity machinery) [1]: stronger stimulation
- stimulatory activity retained on pulsed tumor cells after extensive washing [8]: less than 20%

SMILES: Cc1nc(N=Nc2ccc(S(=O)(=O)O)cc2S(=O)(=O)O)c(COP(=O)(O)O)c(C=O)c1O [PPADS, pyridoxal phosphate-6-azophenyl-2',4'-disulfonic acid]
- effect on ApppI stimulatory activity ([1]; PPADS added to ApppI stimulation): inhibition
- effect on IPP stimulatory activity ([1]; PPADS added to IPP stimulation): partially decreases

SMILES: CC[C@H](C)C(=O)O[C@H]1C[C@@H](C)C=C2C=C[C@H](C)[C@H](CC[C@@H]3C[C@@H](O)CC(=O)O3)[C@H]21 [lovastatin, reference compound]
- effect on stimulatory activity induced by pulsing with ApppI ([8]; K562 cells, lovastatin 20µM, ApppI 20µM, overnight): does not inhibit
- effect on stimulatory activity induced by pamidronate ([8]; K562 cells, lovastatin 20µM, pamidronate 50µM, overnight): efficiently abrogates

SMILES: NCCC(O)(P(=O)(O)O)P(=O)(O)O [pamidronate, reference compound]
- stimulatory activity of pulsed 721.221 cells [8]: poorly stimulatory
- sensitivity of stimulation by pulsed cells to apyrase and pyrophosphatase [8]: completely resistant
